{
  "source": "paper PMC5462828",
  "about": "(Scientific Reports, 2017)",
  "molecules": {"B1": {"name": "Human gene 2 relaxin (H2 relaxin) (ligand)", "chain 1": "QLYSALANKCCHVGCTKRSLARFC", "chain 2": "DSWMEEVIKLCGRELVRAQIAICGMSTWS"}},
  "key": {"[1]": {"target": "RXFP1 stably expressed in HEK293 cells (HEK-RXFP1) (human) (UniProt Q9HBX9)", "experiment": "radioligand binding; kinetics on HEK-RXFP1 cells in 96-well plates, without ML290: association with 100 pM 125I-H2 relaxin over time; dissociation after 90 min equilibration, started with 200 nM unlabelled H2 relaxin"}, "[2]": {"target": "RXFP1 stably expressed in HEK293 cells (HEK-RXFP1) (human) (UniProt Q9HBX9)", "experiment": "radioligand binding; kinetics on HEK-RXFP1 cells in 96-well plates, with ML290 (1 μM): association with 100 pM 125I-H2 relaxin over time; dissociation after 90 min equilibration, started with 200 nM unlabelled H2 relaxin"}, "[3]": {"tested_on": "ML290-mediated cGMP accumulation", "experiment": "Effect of signalling pathway inhibitors on ML290-mediated cGMP accumulation in human primary vascular cells", "assay_type": "cell-based", "conditions": "NF449 10 μM, NF023 10 μM, mSIRK 5 μM, gallein 50 μM, Wortmannin 100 nM, 30 min", "description": "(§1) cAMP and cGMP accumulation was determined as previously described, [16]. Briefly, HEK293 cells were plated in 96-well plates (5 × 10^4 cells/well) and human primary cells were plated into 24-well plates (1 × 10^5 cells/well) and grown overnight to achieve a confluent monolayer. Prior to stimulation, HEK cells were serum-starved in DMEM containing 0.5% FBS v/v and primary cells were serum-starved in M199 medium for 4–6 hours. […] Levels of cAMP and cGMP were detected according to the manufacturer’s instructions (Perkin-Elmer, Australia)."}, "[4]": {"tested_on": "ML290-mediated cAMP accumulation", "experiment": "Effect of signalling pathway inhibitors on ML290-mediated cAMP accumulation in human primary vascular cells", "assay_type": "cell-based", "conditions": "NF449 10 μM, NF023 10 μM, mSIRK 5 μM, gallein 50 μM, Wortmannin 100 nM, 30 min", "description": "as §1"}, "[5]": {"tested_on": "p-Smad2", "experiment": "Smad2 phosphorylation assay in human cardiac fibroblasts", "assay_type": "cell-based", "conditions": "HCFs; TGF-β1 2 ng/ml alone; 72 hours", "description": "(§2) Cells were serum-starved in M199 medium for 24 hours prior sample collection. Cells were used between passages 1–4, while all experiments were performed four separate times in duplicate. Levels of p-Smad2 and p-Smad3 were detected using Sure-fire kits according to the manufacturer’s instructions (Perkin-Elmer, Australia)."}, "[6]": {"tested_on": "p-Smad3", "experiment": "Smad3 phosphorylation assay in human cardiac fibroblasts", "assay_type": "cell-based", "conditions": "HCFs; TGF-β1 2 ng/ml alone; 72 hours", "description": "as §2"}, "[7]": {"target": "T1, RXFP1 stably expressed in HEK293 cells (HEK-RXFP1) (human, UniProt Q9HBX9 1-757)", "T1 construct": "relaxin family peptide receptor 1 (RXFP1), human, stably expressed on HEK293 cells; also called relaxin receptor RXFP1; human RXFP1; source: HEK293 cells stably expressing RXFP1 (HEK-RXFP1), on intact cells", "T1 sequence (looked up)": "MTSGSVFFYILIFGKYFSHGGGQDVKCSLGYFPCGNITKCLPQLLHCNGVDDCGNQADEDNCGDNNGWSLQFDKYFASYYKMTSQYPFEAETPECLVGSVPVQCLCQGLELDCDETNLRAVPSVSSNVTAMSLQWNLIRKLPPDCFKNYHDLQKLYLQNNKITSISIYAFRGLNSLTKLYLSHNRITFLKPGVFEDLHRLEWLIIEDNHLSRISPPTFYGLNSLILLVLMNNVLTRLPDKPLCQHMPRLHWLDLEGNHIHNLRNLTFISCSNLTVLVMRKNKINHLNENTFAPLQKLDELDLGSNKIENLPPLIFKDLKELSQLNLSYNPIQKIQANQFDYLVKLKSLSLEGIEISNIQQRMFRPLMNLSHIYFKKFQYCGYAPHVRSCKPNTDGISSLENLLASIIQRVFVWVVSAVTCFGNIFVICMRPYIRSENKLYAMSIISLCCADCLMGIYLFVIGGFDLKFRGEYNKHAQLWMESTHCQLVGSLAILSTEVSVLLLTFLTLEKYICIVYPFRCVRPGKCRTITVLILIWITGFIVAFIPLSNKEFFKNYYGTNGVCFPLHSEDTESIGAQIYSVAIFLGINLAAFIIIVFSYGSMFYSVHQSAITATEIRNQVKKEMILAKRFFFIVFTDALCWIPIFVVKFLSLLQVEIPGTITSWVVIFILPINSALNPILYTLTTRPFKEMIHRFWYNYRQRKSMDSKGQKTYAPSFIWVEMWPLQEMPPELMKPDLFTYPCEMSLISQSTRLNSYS", "experiment": "radioligand binding; competition on HEK-RXFP1 cells: 100 pM 125I-H2 relaxin against increasing unlabelled H2 relaxin, in the presence of ML290 (1 μM), 90 min, room temperature", "conditions": "one partner purified"}, "[8]": {"target": "T1, RXFP1 stably expressed in HEK293 cells …", "experiment": "cell-based or functional assay"}, "[9]": {"target": "T1, RXFP1 stably expressed in HEK293 cells …", "experiment": "radioligand binding; competition on HEK-RXFP1 cells: 100 pM 125I-H2 relaxin against increasing unlabelled H2 relaxin, vehicle (0.1% DMSO), 90 min, room temperature", "conditions": "one partner purified"}},
  "data": [
    {"molecule": "125I-H2 relaxin (ligand)", "values": [
      {"measurement": "koff", "setting": "[1]", "value": 0.000833, "unit": "s⁻¹"},
      {"measurement": "kon", "setting": "[1]", "value": "3.5e+06", "unit": "M⁻¹ s⁻¹"},
      {"measurement": "koff", "setting": "[2]", "value": 0.000667, "unit": "s⁻¹"},
      {"measurement": "kon", "setting": "[2]", "value": "4.67e+06", "unit": "M⁻¹ s⁻¹"}
    ]},
    {"molecule": "O=C(Nc1cccc(C(=O)Nc2ccc(S(=O)(=O)O)c3cc(S(=O)(=O)O)cc(S(=O)(=O)O)c23)c1)Nc1cccc(C(=O)Nc2ccc(S(=O)(=O)O)c3cc(S(=O)(=O)O)cc(S(=O)(=O)O)c23)c1", "note": "[NF023]", "values": [
      {"measurement": "ML290-mediated cGMP accumulation after inhibitor", "setting": "[3]; HCAECs", "value": "not significantly affected"},
      {"measurement": "ML290-mediated cGMP accumulation after inhibitor", "setting": "[3]; HUASMCs, L9A 5 μM", "value": "no effect"},
      {"measurement": "ML290-mediated cGMP accumulation after inhibitor", "setting": "[3]; HUVECs", "value": "not significantly affected"},
      {"measurement": "ML290-mediated cGMP accumulation after inhibitor", "setting": "[3]; HUVSMCs, L9A 5 μM", "value": "no effect"},
      {"measurement": "ML290-mediated cAMP accumulation after inhibitor", "setting": "[4]; HCAECs", "value": "unaffected"},
      {"measurement": "ML290-mediated cAMP accumulation after inhibitor", "setting": "[4]; HUASMCs, L9A 5 μM", "value": "no effect"},
      {"measurement": "ML290-mediated cAMP accumulation after inhibitor", "setting": "[4]; HUVECs", "value": "unaffected"},
      {"measurement": "ML290-mediated cAMP accumulation after inhibitor", "setting": "[4]; HUVSMCs, L9A 5 μM", "value": "no effect"}
    ]},
    {"molecule": "O=C(Nc1cc(C(=O)Nc2ccc(S(=O)(=O)O)cc2S(=O)(=O)O)cc(C(=O)Nc2ccc(S(=O)(=O)O)cc2S(=O)(=O)O)c1)Nc1cc(C(=O)Nc2ccc(S(=O)(=O)O)cc2S(=O)(=O)O)cc(C(=O)Nc2ccc(S(=O)(=O)O)cc2S(=O)(=O)O)c1", "note": "[NF449]", "values": [
      {"measurement": "ML290-mediated cGMP accumulation after inhibitor", "setting": "[3]; HCAECs", "value": "11.9 ± 5.3 % of the response to DEA"},
      {"measurement": "ML290-mediated cGMP accumulation after inhibitor", "setting": "[3]; HUASMCs, L9A 5 μM", "value": "24.3 ± 5.7", "unit": "%"},
      {"measurement": "ML290-mediated cGMP accumulation after inhibitor", "setting": "[3]; HUVECs", "value": "22.3 ± 3.0 % of the response to DEA"},
      {"measurement": "ML290-mediated cGMP accumulation after inhibitor", "setting": "[3]; HUVSMCs, L9A 5 μM", "value": "18.8 ± 3.7", "unit": "%"},
      {"measurement": "ML290-mediated cAMP accumulation after inhibitor", "setting": "[4]; HCAECs", "value": "0.8 ± 3.9 % response to 50 μM forskolin"},
      {"measurement": "ML290-mediated cAMP accumulation after inhibitor", "setting": "[4]; HUASMCs, L9A 5 μM", "value": "6.0 ± 7.3 % response to 50 μM forskolin"},
      {"measurement": "ML290-mediated cAMP accumulation after inhibitor", "setting": "[4]; HUVECs", "value": "0.8 ± 5.7 % response to 50 μM forskolin"},
      {"measurement": "ML290-mediated cAMP accumulation after inhibitor", "setting": "[4]; HUVSMCs, L9A 5 μM", "value": "4.7 ± 2.5 % response to 50 μM forskolin"}
    ]},
    {"molecule": "COC[C@H]1OC(=O)c2coc3c2[C@@]1(C)C1=C(C3=O)[C@@H]2CCC(=O)[C@@]2(C)C[C@H]1OC(C)=O", "note": "[Wortmannin]", "values": [
      {"measurement": "ML290-mediated cGMP accumulation after inhibitor", "setting": "[3]; HCAECs", "value": "not significantly affected"},
      {"measurement": "ML290-mediated cGMP accumulation after inhibitor", "setting": "[3]; HUASMCs, L9A 5 μM", "value": "21.8 ± 3.4", "unit": "%"},
      {"measurement": "ML290-mediated cGMP accumulation after inhibitor", "setting": "[3]; HUVECs", "value": "not significantly affected"},
      {"measurement": "ML290-mediated cGMP accumulation after inhibitor", "setting": "[3]; HUVSMCs, L9A 5 μM", "value": "14.3 ± 3.3", "unit": "%"},
      {"measurement": "ML290-mediated cAMP accumulation after inhibitor", "setting": "[4]; HCAECs", "value": "unaffected"},
      {"measurement": "ML290-mediated cAMP accumulation after inhibitor", "setting": "[4]; HUASMCs, L9A 5 μM", "value": "7.2 ± 2.2 % response to 50 μM forskolin"},
      {"measurement": "ML290-mediated cAMP accumulation after inhibitor", "setting": "[4]; HUVECs", "value": "unaffected"},
      {"measurement": "ML290-mediated cAMP accumulation after inhibitor", "setting": "[4]; HUVSMCs, L9A 5 μM", "value": "6.4 ± 2.2 % response to 50 μM forskolin"}
    ]},
    {"molecule": "O=C1OC2(c3ccccc31)c1ccc(O)c(O)c1Oc1c2ccc(O)c1O", "note": "[gallein]", "values": [
      {"measurement": "ML290-mediated cGMP accumulation after inhibitor", "setting": "[3]; HCAECs", "value": "not significantly affected"},
      {"measurement": "ML290-mediated cGMP accumulation after inhibitor", "setting": "[3]; HUASMCs, L9A 5 μM", "value": "15.6 ± 2.6", "unit": "%"},
      {"measurement": "ML290-mediated cGMP accumulation after inhibitor", "setting": "[3]; HUVECs", "value": "not significantly affected"},
      {"measurement": "ML290-mediated cGMP accumulation after inhibitor", "setting": "[3]; HUVSMCs, L9A 5 μM", "value": "14.3 ± 3.8", "unit": "%"},
      {"measurement": "ML290-mediated cAMP accumulation after inhibitor", "setting": "[4]; HCAECs", "value": "unaffected"},
      {"measurement": "ML290-mediated cAMP accumulation after inhibitor", "setting": "[4]; HUASMCs, L9A 5 μM", "value": "5.2 ± 1.4 % response to 50 μM forskolin"},
      {"measurement": "ML290-mediated cAMP accumulation after inhibitor", "setting": "[4]; HUVECs", "value": "unaffected"},
      {"measurement": "ML290-mediated cAMP accumulation after inhibitor", "setting": "[4]; HUVSMCs, L9A 5 μM", "value": "3.2 ± 3.4 % response to 50 μM forskolin"}
    ]},
    {"molecule": "TGF-β1: pro-fibrotic cytokine used to induce Smad2 and Smad3 phosphorylation", "values": [
      {"measurement": "increase in p-Smad2 compared to vehicle-treated samples", "setting": "[5]", "value": "2.21 ± 0.17", "unit": "fold"},
      {"measurement": "increase in p-Smad3 compared to vehicle-treated samples", "setting": "[6]", "value": "1.41 ± 0.07", "unit": "fold"}
    ]},
    {"molecule": "B1", "values": [
      {"measurement": "pKi", "setting": "[7]", "value": 9.7},
      {"measurement": "cAMP accumulation in HCAEC (endogenous RXFP1), pEC50 (efficacy in brackets as % of forskolin 50 μM)", "setting": "[8]", "value": 8.9},
      {"measurement": "cGMP accumulation in HCAEC (endogenous RXFP1), pEC50 (efficacy in brackets as % of DEA)", "setting": "[8]", "value": 9.2},
      {"measurement": "cGMP accumulation in HCF (endogenous RXFP1), 40 min, pEC50 (efficacy in brackets as % of DEA)", "setting": "[8]", "value": 9.6},
      {"measurement": "p-ERK1/2 in HEK-RXFP1 cells, 5 min, pEC50 (efficacy in brackets as % of 10% FBS)", "setting": "[8]", "value": 9.5},
      {"measurement": "p-p38MAPK in HEK-RXFP1 cells, 15 min, pEC50 (efficacy in brackets as % of sorbitol)", "setting": "[8]", "value": 8.9},
      {"measurement": "pKi", "setting": "[9]", "value": 9.5}
    ]}
  ]
}
